Data from patent US7560439B2, “Method for increasing the gene expression of transfected genes” (Sigma-Tau Industrie Farmaceutiche Riunite S.p.A., priority 2000, dated 2009).
Where “and” joins values, the source holds several entries; their conditions need not be identical. Equal entries are not always repeated.

Key:
[1] = test system: luciferase expression from transfected pRL-CMV plasmid in HeLa cells; test: Luciferase assay in HeLa cells transiently transfected with pRL-CMV plasmid; format: cell-based; conditions: for RLU/mg mean: HeLa 100000/12-well plates, 1.5 μg/well
Protocol: Cell cultures. The uterine cervical carcinoma cell line HeLa, ATCC was used. The cells were cultured in RPMI 1640 Medium (eurobio), containing antibiotics and 10% foetal calf serum.
Treatment with acetyl-L-carnitine (ALC). 4×10^6 and 5×10^6 cells cultured in a medium containing ALC at final concentrations of 5 mM and 10 mM, respectively, were seeded in two 125 cm^3 flasks, whereas 2×10^6 cells not treated with ALC were plated in a 75 cm^3 flask. The treatment was repeated after 48 h (coinciding with the seeding of the cells for transfection) and after 72 h (at the end of transfection) and was also repeated after 120 h only in the case of samples transfected for lysis at 72 h.
Transient transfection of pRL-CMV plasmid. The cells were seeded for transfection 24 h before in 12-well plates (Corning), in amounts corresponding to 10^5 cells per well. The transfection was carried out in triplicate for each sample using the liposome DOTAP (Boehringer-Mannheim, Indianapolis, Ind.) and the plasmid pRL-CMV (Promega cat. N° E2261). In brief, 1.5 μg/well of DNA and 9.2 μM/well of liposome were used per sample, considering a final volume of 1050 μl/sample; the transfection mixture (25 μl /sample) was left at ambient temperature for 30 min and then HBS 2× (20 mM HEPES, 150 mM NaCl, pH 7.4) was added in amounts of 25 μl/ sample, and 50 μl/sample of the solution thus obtained was added to the cells for 5 hours. After carrying out three washings with PBS (phosphate buffer pH 7.4) without calcium and magnesium, the cells were cultured in growth medium containing ALC at the concentrations indicated in the treatments up to the time of cell lysis for the luciferase assay. As a control, naked DNA was added in a 1× HBS solution.
The cells were washed with PBS (phosphate buffer pH 7.4) without calcium and magnesium and subjected to lysis by means of the addition of 200 μl of lysis buffer contained in the GeneLux L002-100 kit (Wallac) used for the luciferase assay. After 20 min, total proteins were collected and 10 μl of each sample were assayed for luciferase, following the procedures indicated in the kit; the assay was carried out in 96-multiwell plates using the Victor^2 luminometer (Wallac). The luminescence readings obtained, expressed in relative light units (RLU), were normalised for mg of total proteins, calculated using the Bradford Method.

[2] = test system: transfected intracellular plasmidic DNA (pRL-CMV) in HeLa cells; test: Slot blot quantification of transfected intracellular plasmidic DNA; format: cell-based
Protocol: To verify if the positive effect of ALC on luciferase activity was related to an activation of transcriptional machinery or to an increasing of cell permeability, we decided to quantify the total amount of transfected intracellular plasmidic DNA by Slot blot analysis.
Cell culture. Cervical carcinoma cell line HeLa (ATCC) were maintained in RPMI medium (Europio) supplemented with 10% foetal calf serum, 1% P/S in a humidified atmosphere with 5% CO2 ALC treatment 5×10^6 cells were plated in a 125-cm^3 flask and maintained in RPMI, supplemented as described above, containing ALC at two concentrations (5 mM and 10 mM) 4 days before transfection. The treatment was repeated at the end of transfection. Untreated cells were cultured in the same condition and used as control.
Transient Expression of pRL-CMV. 10^5 cells/well were plated 1 day before transfection in 12 multiwells plate (Corning). DOTAP liposome (Boehringer-Mannheim, Indianapolis, Ind.) and pRL-CMV plasmid (Promega cat. N° E2261) were used for transfection, 6 wells/sample. Briefly, 1.5 μg/well of DNA and a water solution of liposome at 9.2 μM were mixed at room temperature (25 μl/sample) to form DNA-liposome complex. After incubation for 30 min, the same volume/well of HBS 2× (20 mM HEPES, 150 mM NaCl, pH 7.4) was added and the transfection mixture was aliquotated (50 μl/well in supplemented medium). The cells were incubated with the complex for 5 h and the complex removed by washing with PBS (phosphate-buffered saline, pH 7.4, Ca^++ and Mg^++ free). Cells were maintained in supplemented medium, containing ALC, for 24h and then used for analysis. Nude DNA in HBS 1× (pRL-CMV) was transfected as control.
DNA extraction. Total cellular DNA was extracted by alkaline lysis from transfected cells according to the method reported by Maniatis. After washing with PBS, cells were collected with PBS (1 ml/well) and centrifuged at 1500×g for 10 min at r.t.
According to protocol, each pellet, placed on ice, was lysed using: 100 μl of solution I [50 mM glucose, 25 mM Tris-HCl (pH=8), 10 mM EDTA (pH=8)], 200 μl of solution II [0.2 N NaOH, 1% SDS], 150 μl of solution III (5M potassium acetate, glacial acetic acid]. After centrifugation at 12000×g for 5 min at 4° C., surnatant was collected and DNA was precipitated with EtOH. Pellet was resuspended in TE 1× (50 μl/sample).
Probe labelling. The probe, the luciferase gene, was obtained by digestion of pRL-CMV with HindIII for 2 h at 37° C. and then with BamHI in the same condition. After digestion, the mixture was electrophoresed on 0.8% agarose gel in TAE 1× buffer (40 mM Tris-HCl (pH 7.8), 1.1 mM EDTA and 37 mM sodium acetate) and the fragment corresponding to luciferase gene was isolated by excision. The labelling of luciferase gene was performed using the Rediprime II DNA labelling system (Amersham Pharmacia biotech, cat n. RPN 1633) and Redivue stabilised [α-^32P]dCTP (Amersham Pharmacia biotech, cat n. AA 0005) according to purchased protocol.
Slot Blot. DNA samples were absorbed on positively charged Nylon membrane (Boehringer, cat. n. 1209299) using Biorad Slot Blot apparatus. The DNA was linked to the filter by U.V. Stratalinker-2400 (Stratagene). After pre-incubation of the filter with QuikHyb Hybridization Solution (Stratagene, cat. n. 201220) for 20 min at 68° C., 2.5×10^6 cpm/ml of labelled probe was added, after boiling, with salmon sperm DNA, for 2 min. The hybridization was performed at 68° C. for 1 h, and then the filter was washed twice with buffer I (SSC 2×, SDS 0.1%) for 15 min at room temperature and then with buffer II (SSC 0.1×, SDS 0.1%) for 30 min at 60° C. The filter was exposed to “Phosphor Imager” box and then analysed by densitometry using a IPlab Gel software.

[3] = Dotap/DNA complex + ALC 5 mM, slots 19-24
[4] = Dotap/DNA complex + ALC 10 mM, slots 31-36
[5] = nude DNA + ALC 5 mM, slots 13-18

SMILES: CC(=O)O[C@H](CC(=O)[O-])C[N+](C)(C)C [ALC, acetyl L-carnitine]
- RLU/mg mean ([1]; 5 mM ALC + ETS (no Dotap)): 17,025 RLU/mg
- RLU/mg mean ([1]; 5 mM ALC + LUC (no Dotap)): 18,060 RLU/mg
- RLU/mg mean ([1]; 5 mM ALC + dota + LUC): 779,340 RLU/mg
- RLU/mg mean ([1]; 5 mM ALC + dotap + ETS): 22,411 RLU/mg
- increase of mean RLU per mg of total proteins as compared to untreated samples ([1]; 5 mM ALC, lysates at 24 h): approximately 1.6 fold
- RLU/mg mean ([1]; 10 mM ALC + ETS (no Dotap)): 17,724 RLU/mg
- RLU/mg mean ([1]; 10 mM ALC + LUC (no Dotap)): 20,481 RLU/mg
- RLU/mg mean ([1]; 10 mM ALC + dotap + ETS): 20,520 RLU/mg
- RLU/mg mean ([1]; 10 mM ALC + dotap + LUC): 750,034 RLU/mg
- luciferase expression compared with 5 mM ALC ([1]; 10 mM ALC, lysates at 24 h): no additional increase
- RLUs per mg of proteins, treated vs untreated samples ([1]; lysates at 48 h after transfection): no significant differences
- luciferase expression ([1]; lysates at 72 h): no luciferase expression
- Slot blot densitometry vs untreated ([2]; 10 mM ALC): little decrease
- Slot blot densitometry, transfected cells in presence vs absence of ALC ([2]; 24 h after transfection): no difference
- densitometric volume, mean [2, 3]: 240634.5 relative units
- densitometric volume, single values [2, 3]: 222013 relative units and 255756 relative units and 253422 relative units and 234654 relative units and 239053 relative units and 238909 relative units
- densitometric volume, mean [2, 4]: 165345 relative units
- densitometric volume, single values [2, 4]: 173870 relative units and 225644 relative units and 116848 relative units and 114911 relative units and 157762 relative units and 203035 relative units
- densitometric volume, mean ([2]; Nude DNA + ALC 10 mM, slots 25-30): 52595.2 relative units
- densitometric volume, mean [2, 5]: 61441.5 relative units
- densitometric volume, single values [2, 5]: 59846 relative units and 58324 relative units and 61431 relative units and 70373 relative units and 63045 relative units and 55630 relative units
